Measured values reported in paper PMC3438171, “Characterization of Isoenzyme-Selective Inhibitors of Human Sphingosine Kinases” (PLoS ONE, 2012).

How the values were obtained:
recombinant human SK1 = biological target: T1, recombinant human SK1 (Homo sapiens, UniProt Q9NYA1); test: SK activity assay, recombinant human SK1 (ADP-Quest; HPLC assay for SKI-II); assay type: biochemical; details: for IC50: sphingosine 10 µM, read-out: IC50 for inhibition of SK1; for IC50 / Ki: ADP-Quest (SKI-II: HPLC assay); for Ki: recombinant human SK1, mean ± SEM of three independent experiments; for mode of inhibition of SK1: substrate competition, Lineweaver-Burk plots
T1 construct: purchased BPS Biosciences
T1 sequence (Q9NYA1 whole entry): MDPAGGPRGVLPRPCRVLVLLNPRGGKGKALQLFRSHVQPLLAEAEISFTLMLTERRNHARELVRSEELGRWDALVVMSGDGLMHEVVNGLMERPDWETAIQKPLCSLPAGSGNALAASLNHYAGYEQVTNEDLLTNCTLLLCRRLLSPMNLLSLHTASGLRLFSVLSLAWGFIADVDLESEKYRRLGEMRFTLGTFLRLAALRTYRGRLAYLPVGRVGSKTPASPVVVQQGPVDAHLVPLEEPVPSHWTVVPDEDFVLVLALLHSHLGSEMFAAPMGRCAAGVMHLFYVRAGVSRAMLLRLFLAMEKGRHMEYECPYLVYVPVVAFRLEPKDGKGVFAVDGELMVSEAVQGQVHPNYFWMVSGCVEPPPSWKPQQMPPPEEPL
Procedure: (§3) The enzymatic activities of recombinant human SK1 or SK2 (purity ≥74% by coomassie staining for each isozyme, BPS Biosciences) were measured using the ADP-Quest kinase assay kit (DiscoveRX Corporation, Fremont, CA) as previously described [34]. […] The reactions were maintained in initial velocity conditions (<5% of the substrate consumed), and data was fitted to the Michaelis–Menten equation by nonlinear regression (Prism 5 for Windows, GraphPad Software). […] For substrate competition analyses, a series of sphingosine concentrations were used and Lineweaver–Burk plots were constructed to define the mode of inhibition.

recombinant human SK2 = biological target: T2, recombinant human SK2 (Homo sapiens, UniProt Q9NRA0); test: SK activity assay, recombinant human SK2 (ADP-Quest; HPLC assay for SKI-II); assay type: biochemical; details: for Ki: recombinant human SK2, mean ± SEM of three independent experiments; for Ki / IC50: ADP-Quest (SKI-II: HPLC assay); for IC50: sphingosine 5 µM, read-out: IC50 for inhibition of SK2; for mode of inhibition of SK2: substrate competition, Lineweaver-Burk plots
T2 construct: purchased BPS Biosciences
T2 sequence (Q9NRA0 1-654): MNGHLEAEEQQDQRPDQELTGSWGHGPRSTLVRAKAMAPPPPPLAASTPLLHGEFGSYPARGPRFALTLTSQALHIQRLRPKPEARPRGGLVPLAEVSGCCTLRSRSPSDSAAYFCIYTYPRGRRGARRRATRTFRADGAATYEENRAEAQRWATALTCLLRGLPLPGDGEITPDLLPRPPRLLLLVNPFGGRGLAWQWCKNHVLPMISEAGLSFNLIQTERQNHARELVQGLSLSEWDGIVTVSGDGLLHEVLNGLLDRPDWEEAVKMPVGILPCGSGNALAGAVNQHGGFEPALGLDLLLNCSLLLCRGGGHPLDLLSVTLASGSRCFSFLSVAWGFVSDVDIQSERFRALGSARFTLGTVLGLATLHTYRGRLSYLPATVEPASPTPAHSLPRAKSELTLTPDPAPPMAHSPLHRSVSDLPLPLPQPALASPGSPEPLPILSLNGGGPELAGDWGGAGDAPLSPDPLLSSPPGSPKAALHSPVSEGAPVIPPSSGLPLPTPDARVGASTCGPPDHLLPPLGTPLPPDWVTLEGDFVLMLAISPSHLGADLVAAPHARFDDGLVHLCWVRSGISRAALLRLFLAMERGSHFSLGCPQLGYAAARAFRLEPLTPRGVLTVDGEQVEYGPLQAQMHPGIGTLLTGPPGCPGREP
Procedure: as §3

[1] = tested on: A498 kidney adenocarcinoma cells; test: Proliferation / cytotoxicity, sulforhodamine assay; assay type: cell-based; details: Homo sapiens, A498, 48 h, read-out: IC50, concentration that reduces cell number by 50%
Procedure: (§4) To assess proliferation, cells were treated with the SK inhibitors for the indicated times, and cell numbers were quantified using the sulforhodamine assay [38]. […] For migration assays, 50,000 cells were placed in each cell culture insert (24-well format, 8 µm pore size, BD Biosciences) for 1 hr at room temperature. For invasion assays, matrigel pre-coated inserts were used as previously described [17]. In both cases, inserts were placed into 24-well plates with 0.3 ml of 10%-serum-containing medium having the same concentration of the inhibitor as the insert. Cells were cultured for 4 hr for migration or 24 hr for invasion assays, and the number of cells that migrated to the underside of the inserts was determined by crystal violet staining as previously described [17].
(§5) A ) Cytotoxicity - After treatment with varying concentrations of the SK inhibitors for the indicated time periods, cell numbers were quantified. […] E ) Cell migration and invasion – After SK inhibitor treatment, cells were harvested and migration, through unmodified filters (open bars) and invasion through Matrigel-coated filters (filled bars), were analyzed. […] Data are the mean ± SEM of three independent experiments. *p<0.05, **p<0.01, ***p<0.001 versus control.

SK1 mRNA = SK1 mRNA expression by quantitative PCR in A498 cells; assay type: cell-based; details: inhibitor at its IC50, 48 hr
Procedure: (§1) To assess proliferation, cells were treated with the SK inhibitors for the indicated times, and cell numbers were quantified using the sulforhodamine assay. Expression levels of SK1 and SK2 were measured by quantitative PCR using GAPDH for normalization, as previously described. […] The cell pellets were subjected to sphingolipid profiling by HPLC-MS by the Lipidomics Core Facility at MUSC as described elsewhere. […] For migration assays, 50,000 cells were placed in each cell culture insert (24-well format, 8 µm pore size, BD Biosciences) for 1 hr at room temperature. For invasion assays, matrigel pre-coated inserts were used as previously described. In both cases, inserts were placed into 24-well plates with 0.3 ml of 10%-serum-containing medium having the same concentration of the inhibitor as the insert. Cells were cultured for 4 hr for migration or 24 hr for invasion assays, and the number of cells that migrated to the underside of the inserts was determined by crystal violet staining as previously described.
(§2) Figure 5 Biochemical and phenotypic effects of SK inhibitors. A ) Cytotoxicity - After treatment with varying concentrations of the SK inhibitors for the indicated time periods, cell numbers were quantified. […] B ) SK expression - After SK inhibitor treatment, mRNAs for SK1 (open bars) and SK2 (filled bars) compared to the vehicle controls (DMSO-treated cells) were calculated. C ) Sphingolipid profiling – After SK inhibitor treatment, cells were harvested and sphingolipids were analyzed by mass spectrometric. The bars represent the ratio of the amount of the indicated lipids in drug treated cells compared with control cells. Abbreviations are: C26-ceramide (C26-Cer), C24-ceramide (C24-Cer), C20-ceramide (C20-Cer), C18-ceramide (C18-Cer), C16-ceramide (C16-Cer), sphingosine (Sph) and dihydrosphingosine (dhSph). D ) Cell cycle distribution – After SK inhibitor treatment, cells were harvested and analyzed by flow cytometry. The bars indicate the percentage of cells in each of the indicated cell cycle phases. E ) Cell migration and invasion – After SK inhibitor treatment, cells were harvested and migration, through unmodified filters (open bars) and invasion through Matrigel-coated filters (filled bars), were analyzed. The bars indicate the percentage of cells that had migrated compared to control cells. Data are the mean ± SEM of three independent experiments. *p<0.05, **p<0.01, ***p<0.001 versus control.

SK2 mRNA = SK2 mRNA expression by quantitative PCR in A498 cells; assay type: cell-based; details: inhibitor at its IC50, 48 hr
Procedure: as §1, §2

[2] = tested on: A498 kidney adenocarcinoma cells; test: Sphingolipid profiling by HPLC-MS in A498 cells; assay type: cell-based; details: inhibitor at its IC50, 48 hr
Procedure: as §1, §2

[3] = tested on: A498 kidney adenocarcinoma cells; test: Cell cycle distribution by flow cytometry; assay type: cell-based; details: inhibitor at its IC50, 48 hr
Procedure: as §2

[4] = tested on: A498 kidney adenocarcinoma cells; test: Serum-induced migration and invasion (Matrigel) assays; assay type: cell-based; details: inhibitor at its IC50, 48 hr pretreatment, compared with SK1-selective CB5468139
Procedure: as §4, §5

[5] = tested on: STAT3, AKT, ERK, p21, p53, FAK, Beclin1, LC3 in A498 cells; test: Western blot of signaling proteins in A498 cells; assay type: cell-based; details: inhibitor at its IC50, 48 hours
Procedure: Following treatment with the SK inhibitors, cells were washed, harvested and lysed, and supernatants were prepared and protein concentrations were determined as previously described. Immunoblotting was carried out with the following primary antibodies (Cell Signaling): AKT, pAKT, ERK1/2, pERK1/2, STAT3, pSTAT3, p21, p53, FAK, pFAK(Y397), Beclin1, LC3, β-actin; and corresponding HRP-conjugated anti-rabbit or anti-mouse secondary antibodies, and immunocomplexes were visualized by the chemiluminescence. Protein expression was quantified by densitometric scanning of the BIOMAX XAR films after normalization to β-actin using the program NIH ImageJ.
Figure 6 Effects of SK inhibitors on signaling proteins. […] Figures are representative blots of at least three independent experiments. B ) Immunoblotting was conducted with the indicated antibodies, and densitometric quantification was done using Image J. Relative expression is represented as the ratio to control after normalization to β-actin.

[6] = tested on: panel of 65 protein kinases; test: Kinase profiling, KinaseSeeker assay; details: 2 µM compound; 65 protein kinases tested
Procedure: The inhibitory effects of CB5468139 (2 µM) on the indicated protein kinases were tested using KinaseSeeker assay technology (Luceome Biotech. LLC).

[7] = 100 µM ATP, sphingosine 1.25 to 20 µM, initial velocity conditions

| IC50 (recombinant human SK1) | IC50 (recombinant human SK2) | mode of inhibition of SK2 (recombinant human SK2) | mode of inhibition of SK1 (recombinant human SK1) | Compound | Ki (recombinant human SK2) | IC50 [1] | SK1 mRNA level compared to vehicle control (SK1 mRNA) | SK2 mRNA level compared to vehicle control (SK2 mRNA) | decrease of intracellular S1P compared to control [2] | effect on cell cycle distribution [3] | pFAK(Y397) / FAK [5] | protein levels of p53 and p21 [5] | further results |
| --- | --- | --- | --- | --- | --- | --- | --- | --- | --- | --- | --- | --- | --- |
| > 100 µM | ~40 µM | sphingosine-competitive inhibitor |  | O=C(NCc1ccncc1)C12CC3CC(C1)CC(c1ccc(Cl)cc1)(C3)C2 [ABC294640] | 9.3 µM | 40 µM | approximately 5 fold | strongly increased | over 90% | distinct G1 arrest with significant decreases in both S and G2/M phases | strongly down-regulated | decreased the protein levels of p53 and p21 | levels of sphingosine [2]: dramatically decreased; total ceramides relative to control cells [2]: 2 times the level of control cells; serum-induced migration and invasion [4]: more strongly attenuated; ERK2 expression [5]: decreases of ERK2; STAT3 expression and activation (pSTAT3) [5]: largest decrease; expression of autophagy markers beclin1 and LC3 [5]: most pronounced increases; pAKT level [5]: decreased dramatically |
| ~10 µM | ~10 µM | sphingosine-competitive inhibitor | sphingosine-competitive inhibitor | O=C(NCCc1ccc(O)c(O)c1)C12CC3CC(C1)CC(c1ccc(Cl)cc1)(C3)C2 [ABC294735] | 4.2 ± 0.6 µM | 35 µM | Neither ABC294735 nor CB5468139 substantially altered the expression | Neither ABC294735 nor CB5468139 substantially altered the expression |  | slightly increase the S phase percentage |  |  | Ki (recombinant human SK1): 3.1 ± 0.8 µM |

Further lines, the compound ahead of its results:

| Compound | IC50 (recombinant human SK1) | IC50 (recombinant human SK2) | mode of inhibition of SK2 (recombinant human SK2) | mode of inhibition of SK1 (recombinant human SK1) | Ki (recombinant human SK2) | IC50 [1] | SK1 mRNA level compared to vehicle control (SK1 mRNA) | SK2 mRNA level compared to vehicle control (SK2 mRNA) | decrease of intracellular S1P compared to control [2] | effect on cell cycle distribution [3] | pFAK(Y397) / FAK [5] | protein levels of p53 and p21 [5] | further results |
| --- | --- | --- | --- | --- | --- | --- | --- | --- | --- | --- | --- | --- | --- |
| CC(=O)N(C1=C(Cl)C(=O)c2ccccc2C1=O)C1CCCCC1 [CB5468139] | ~2 µM | > 100 µM |  | ATP mimetic |  | 10 µM | Neither ABC294735 nor CB5468139 substantially altered the expression | Neither ABC294735 nor CB5468139 substantially altered the expression | less than 20% | slightly increase the S phase percentage | strongly down-regulated | reduced the expression of p53, but not p21 | Ki (recombinant human SK1): 0.28 ± 0.15 µM; increase of total ceramide levels [2]: 30–60%; protein kinases with ≥50% inhibition [6]: 12 of 65 |
| CCCCCCCCCCCCC/C=C/[C@@H](O)[C@H](CO)N(C)C [DMS, N,N-dimethyl-D-erythro-sphingosine, reference compound] |  | ~20 µM | competitive inhibition with respect to sphingosine | competitive inhibition with respect to sphingosine | 14 µM | 5 µM | tripled | only slightly increased |  | did not impact the cell cycle | not altered | essentially no affect | effect on levels of ceramides [2]: little impact on the levels of most ceramides; cells driven into apoptosis [3]: approximately 20% |
| Oc1ccc(Nc2nc(-c3ccc(Cl)cc3)cs2)cc1 [SKI-II, 2-(p-hydroxyanilino)-4-(p-chlorophenyl) thiazole, reference compound] |  | 20 µM |  |  | 7.9 ± 0.6 µM | 20 µM | ~4 fold | ~4 fold | over 90% | arrested cells in S phase with a concomitant decrease in the G2/M phase | strongly down-regulated | decreased the protein levels of p53 and p21 | increase of total ceramide levels [2]: 30–60%; levels of sphingosine [2]: dramatically decreased; serum-induced migration and invasion [4]: more strongly attenuated; ERK2 expression [5]: decreases of ERK2 |
| CCCCCCCCCCCCC/C=C/[C@@H](O)[C@@H](N)CO [sphingosine] |  |  |  |  |  |  |  |  |  |  |  |  | Km (recombinant human SK1; [7]): 10 ± 0.45 µM; Km (recombinant human SK2; [7]): 5 ± 0.36 µM |
| diacylglycerol [DAG] | > 100 µM | > 100 µM |  |  |  |  |  |  |  |  |  |  |  |
